± gives the expanded uncertainty stated by the source.
Assays:
[1] = for surface tension liquid-gas: Maximal bubble pressure; for mass density: 100 kPa, Liquid, Vibrating tube method
[2] = xn = mol fraction of the nth substance listed; details: x2 = 0; for surface tension liquid-gas: Maximal bubble pressure; for mass density: 100 kPa, Liquid, Vibrating tube method

Q: Which surface tension liquid-gas ([1]; 288.15 K) does the source give for `COCC[n+]1ccn(C)c1.O=S(=O)([N-]S(=O)(=O)C(F)(F)F)C(F)(F)F` here?
A: Its surface tension liquid-gas is 41.4 ± 4.2 mN/m.

Q: And the mass density ([1]; 288.15 K)?
A: Its mass density is 1515.3 ± 9.4 kg/m3.

Q: And the surface tension liquid-gas ([1]; 293.15 K)?
A: The surface tension liquid-gas was 41.2 ± 4.1 mN/m.

Q: What about the mass density ([1]; 293.15 K) of the same compound?
A: The mass density was 1510.15 ± 9.4 kg/m3.

Q: What about the surface tension liquid-gas ([1]; 298.15 K) of the same compound?
A: Its surface tension liquid-gas is 41 ± 4.1 mN/m.

Q: What about the mass density ([1]; 298.15 K) of the same compound?
A: The mass density was 1505.03 ± 9.4 kg/m3.

Q: What about the surface tension liquid-gas ([1]; 303.15 K) of the same compound?
A: The surface tension liquid-gas was 40.7 ± 4.1 mN/m.

Q: What about the mass density ([1]; 303.15 K) of the same compound?
A: Its mass density is 1499.92 ± 9.3 kg/m3.

Q: And the surface tension liquid-gas ([1]; 308.15 K)?
A: The surface tension liquid-gas was 40.5 ± 4.1 mN/m.

Q: And the mass density ([1]; 308.15 K)?
A: Its mass density is 1494.83 ± 9.3 kg/m3.

Q: And the surface tension liquid-gas ([1]; 313.15 K)?
A: The surface tension liquid-gas was 40.3 ± 4 mN/m.

Q: And the mass density ([1]; 313.15 K)?
A: The mass density was 1489.77 ± 9.3 kg/m3.

Q: What about the surface tension liquid-gas ([1]; 318.15 K) of the same compound?
A: The surface tension liquid-gas was 40.1 ± 4 mN/m.

Q: And the mass density ([1]; 318.15 K)?
A: Its mass density is 1484.72 ± 9.2 kg/m3.

Q: With `CCO` [ethanol] + COCC[n+]1ccn(C)c1.O=S(=O)([N-]S(=O)(=O)C(F)(F)F)C(F)(F)F as the compound, how does the surface tension liquid-gas ([2]; 288.15 K) read?
A: Its surface tension liquid-gas is 23.3 ± 2.3 mN/m.

Q: What about the mass density ([2]; 288.15 K) of the same compound?
A: The mass density was 793.91 ± 4.9 kg/m3.

Q: What about the surface tension liquid-gas ([2]; 293.15 K) of the same compound?
A: Its surface tension liquid-gas is 22.7 ± 2.3 mN/m.

Q: What about the mass density ([2]; 293.15 K) of the same compound?
A: The mass density was 789.66 ± 4.9 kg/m3.

Q: And the surface tension liquid-gas ([2]; 298.15 K)?
A: The surface tension liquid-gas was 22.2 ± 2.2 mN/m.

Q: And the mass density ([2]; 298.15 K)?
A: The mass density was 785.73 ± 4.9 kg/m3.

Q: And the surface tension liquid-gas ([2]; 303.15 K)?
A: The surface tension liquid-gas was 21.6 ± 2.2 mN/m.

Q: And the mass density ([2]; 303.15 K)?
A: The mass density was 781.05 ± 4.8 kg/m3.

Q: And the surface tension liquid-gas ([2]; 308.15 K)?
A: Its surface tension liquid-gas is 21.1 ± 2.1 mN/m.

Q: What about the mass density ([2]; 308.15 K) of the same compound?
A: Its mass density is 776.7 ± 4.8 kg/m3.

Q: What about the surface tension liquid-gas ([2]; 313.15 K) of the same compound?
A: The surface tension liquid-gas was 20.7 ± 2.1 mN/m.

Q: And the mass density ([2]; 313.15 K)?
A: The mass density was 772.31 ± 4.8 kg/m3.

Q: What about the surface tension liquid-gas ([2]; 318.15 K) of the same compound?
A: The surface tension liquid-gas was 20 ± 2 mN/m.

Q: What about the mass density ([2]; 318.15 K) of the same compound?
A: Its mass density is 767.88 ± 4.8 kg/m3.

Q: For `CO` [methanol], which surface tension liquid-gas ([1]; 288.15 K) is on record?
A: Its surface tension liquid-gas is 24.4 ± 2.4 mN/m.

Q: What about the mass density ([1]; 288.15 K) of the same compound?
A: Its mass density is 796.037 ± 4.9 kg/m3.

Q: What about the surface tension liquid-gas ([1]; 293.15 K) of the same compound?
A: The surface tension liquid-gas was 23.8 ± 2.4 mN/m.

Q: And the mass density ([1]; 293.15 K)?
A: The mass density was 791.352 ± 4.9 kg/m3.

Q: And the surface tension liquid-gas ([1]; 298.15 K)?
A: Its surface tension liquid-gas is 22.9 ± 2.3 mN/m.

Q: And the mass density ([1]; 298.15 K)?
A: Its mass density is 786.643 ± 4.9 kg/m3.

Q: And the surface tension liquid-gas ([1]; 303.15 K)?
A: Its surface tension liquid-gas is 22.3 ± 2.2 mN/m.

Q: What about the mass density ([1]; 303.15 K) of the same compound?
A: Its mass density is 781.913 ± 4.8 kg/m3.

Q: And the surface tension liquid-gas ([1]; 308.15 K)?
A: Its surface tension liquid-gas is 21.8 ± 2.2 mN/m.

Q: And the mass density ([1]; 308.15 K)?
A: The mass density was 777.16 ± 4.8 kg/m3.

Q: And the surface tension liquid-gas ([1]; 313.15 K)?
A: Its surface tension liquid-gas is 21.1 ± 2.1 mN/m.

Q: What about the mass density ([1]; 313.15 K) of the same compound?
A: The mass density was 772.38 ± 4.8 kg/m3.

Q: What about the surface tension liquid-gas ([1]; 318.15 K) of the same compound?
A: Its surface tension liquid-gas is 20.5 ± 2.1 mN/m.

Q: And the mass density ([1]; 318.15 K)?
A: The mass density was 767.567 ± 4.8 kg/m3.

Q: With `CO` [methanol] + COCC[n+]1ccn(C)c1.O=S(=O)([N-]S(=O)(=O)C(F)(F)F)C(F)(F)F as the compound, how does the surface tension liquid-gas ([2]; 288.15 K) read?
A: The surface tension liquid-gas was 24.4 ± 2.4 mN/m.

Q: What about the mass density ([2]; 288.15 K) of the same compound?
A: Its mass density is 796.037 ± 4.9 kg/m3.

Q: What about the surface tension liquid-gas ([2]; 293.15 K) of the same compound?
A: The surface tension liquid-gas was 23.8 ± 2.4 mN/m.

Q: What about the mass density ([2]; 293.15 K) of the same compound?
A: Its mass density is 791.352 ± 4.9 kg/m3.

Q: And the surface tension liquid-gas ([2]; 298.15 K)?
A: The surface tension liquid-gas was 22.9 ± 2.3 mN/m.

Q: What about the mass density ([2]; 298.15 K) of the same compound?
A: Its mass density is 786.643 ± 4.9 kg/m3.

Q: And the surface tension liquid-gas ([2]; 303.15 K)?
A: Its surface tension liquid-gas is 22.3 ± 2.2 mN/m.

Q: What about the mass density ([2]; 303.15 K) of the same compound?
A: Its mass density is 781.913 ± 4.8 kg/m3.

Q: And the surface tension liquid-gas ([2]; 308.15 K)?
A: The surface tension liquid-gas was 21.8 ± 2.2 mN/m.

Q: What about the mass density ([2]; 308.15 K) of the same compound?
A: The mass density was 777.16 ± 4.8 kg/m3.

Q: And the surface tension liquid-gas ([2]; 313.15 K)?
A: The surface tension liquid-gas was 21.1 ± 2.1 mN/m.

Q: What about the mass density ([2]; 313.15 K) of the same compound?
A: The mass density was 772.38 ± 4.8 kg/m3.

Q: And the surface tension liquid-gas ([2]; 318.15 K)?
A: The surface tension liquid-gas was 20.5 ± 2.1 mN/m.

Q: What about the mass density ([2]; 318.15 K) of the same compound?
A: Its mass density is 767.567 ± 4.8 kg/m3.

From the NIST ThermoML archive (doi:10.1016/j.jct.2019.06.005)
